Patent US11840686B2, “Modulation of prekallikrein (PKK) expression” (Ionis Pharmaceuticals, Inc., priority 2013, dated 2023)
Strand notation (5' to 3'): a small letter for the sugar, then the base; units joined by * are phosphorothioate-linked, units joined directly phosphodiester-linked; [ ] holds rarer units or linkages, { } end groups; capitals alone tell only the bases. e = 2'-O-(2-methoxyethyl) (MOE); k = constrained ethyl (cEt); [5mC] = 5-methylcytosine; d = 2'-deoxy (DNA)

Test system: human PKK mRNA
Assay: Antisense inhibition of human PKK mRNA in HepaRG cells, 1,000 nM, MOE/deoxy/cEt oligonucleotides (Example 3)
Type: cell-based
Procedure, shortened: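 HepaRG cells at 20,000 per well electroporated with 1,000 nM 16-mer MOE/cEt/deoxy gapmers (phosphorothioate, 5-methylcytosine). After about 24 h, PKK mRNA measured by qRT-PCR with primer probe set RTS3454, normalized to RIBOGREEN total RNA. Reported as percent inhibition versus untreated cells.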

[1] = Table 20, HepaRG cells, electroporation with 1,000 nM antisense oligonucleotide, approximately 24 hours, PKK mRNA by RT-PCR (RTS3454), relative to untreated control cells
[2] = Table 22 experiment, HepaRG cells, electroporation with 1,000 nM antisense oligonucleotide, approx. 24 hours, PKK mRNA by RT-PCR (RTS3454), relative to untreated control cells
[3] = HepaRG cells, electroporation with 1,000 nM antisense oligonucleotide, approx. 24 hours, PKK mRNA by RT-PCR (RTS3454), relative to untreated control cells, Table 25 experiment
[4] = Table 27, HepaRG cells, 1,000 nM antisense oligonucleotide, human PKK mRNA
[5] = HepaRG cells, electroporation with 1,000 nM antisense oligonucleotide, approx. 24 hours, PKK mRNA by RT-PCR (RTS3454), relative to untreated control cells, Table 26 experiment
[6] = Table 28, HepaRG cells, 1,000 nM antisense oligonucleotide, human PKK mRNA
[7] = Table 21 experiment, HepaRG cells, electroporation with 1,000 nM antisense oligonucleotide, approx. 24 hours, PKK mRNA by RT-PCR (RTS3454), relative to untreated control cells
[8] = HepaRG cells, electroporation with 1,000 nM antisense oligonucleotide, approximately 24 hours, primer probe set RTS3454, relative to untreated control cells, experiment of Table 24
[9] = Table 19, HepaRG cells, electroporation with 1,000 nM antisense oligonucleotide, approximately 24 hours, PKK mRNA by RT-PCR (RTS3454), relative to untreated control cells
[10] = HepaRG cells, 1,000 nM antisense oligonucleotide, Table 29
[11] = HepaRG cells, electroporation with 1,000 nM antisense oligonucleotide, approximately 24 hours, primer probe set RTS3454, relative to untreated control cells, experiment of Table 23
[12] = PKK mRNA, HepaRG cells, 1,000 nM antisense oligonucleotide, Table 31

Substance: 547892 (e[5mC]*eA*kA*dT*dT*dG*dT*dT*d[5mC]*d[5mC]*dG*dG*dT*kA*k[5mC]*eT; antisense) [compound 547892]
- % inhibition [1]: 29%
- % inhibition [2]: 28%

Substance: 548169 (eG*eT*kT*dG*d[5mC]*dG*dA*d[5mC]*d[5mC]*dT*d[5mC]*dG*d[5mC]*kA*kT*eT; antisense) [compound 548169]
- % inhibition [3]: 7%

Substance: 548321 (e[5mC]*eT*kG*d[5mC]*dA*dT*d[5mC]*dT*dG*dG*dA*d[5mC]*dT*kA*kT*eG; antisense) [compound 548321]
- % inhibition [4]: 38%

Substance: 548289 (e[5mC]*eA*kT*dG*dA*dT*dA*d[5mC]*d[5mC]*dA*d[5mC]*dA*d[5mC]*k[5mC]*kA*e[5mC]; antisense) [compound 548289]
- % inhibition [5]: 28%

Substance: 548475 (eA*eT*k[5mC]*dG*dA*dG*dT*d[5mC]*d[5mC]*dT*dG*d[5mC]*d[5mC]*kT*k[5mC]*e[5mC]; antisense) [compound 548475]
- % inhibition [6]: 17%

Substance: 547789 (antisense eG*eA*kA*dA*dT*dA*dA*dG*dT*dT*dG*d[5mC]*dT*kT*kG*e[5mC]) [compound 547789]
- % inhibition [7]: 20%

Substance: 548371 (e[5mC]*eG*kA*dT*dG*dA*dG*dT*dT*dG*dG*dG*d[5mC]*kA*kG*eG; antisense) [compound 548371]
- % inhibition [4]: 57%

Substance: 548340 (antisense eG*eA*kT*dG*dA*dT*d[5mC]*d[5mC]*dT*d[5mC]*dA*d[5mC]*dA*kT*kA*e[5mC]) [compound 548340]
- % inhibition [4]: 35%

Substance: 548315 (eG*eT*kT*dG*dT*d[5mC]*dA*dA*d[5mC]*dT*dG*dG*dG*kA*k[5mC]*e[5mC]; antisense) [compound 548315]
- % inhibition [4]: 14%

Substance: 548007 (e[5mC]*eT*k[5mC]*dA*dA*dA*dG*dA*dG*dT*dA*dA*d[5mC]*k[5mC]*kA*eG; antisense) [compound 548007]
- % inhibition [8]: 70%

Substance: 547893 (eG*e[5mC]*kA*dA*dT*dT*dG*dT*dT*d[5mC]*d[5mC]*dG*dG*kT*kA*e[5mC]; antisense) [compound 547893]
- % inhibition [1]: 81%
- % inhibition [2]: 80%

Substance: 547899 (eG*eT*kA*d[5mC]*dT*dT*dT*dA*dA*dT*dA*dG*dG*k[5mC]*kA*eA; antisense) [compound 547899]
- % inhibition [1]: 49%
- % inhibition [2]: 68%

Substance: 548511 (antisense eA*eG*k[5mC]*dT*dA*dG*d[5mC]*dT*dG*dA*d[5mC]*d[5mC]*d[5mC]*k[5mC]*kA*eA) [compound 548511]
- % inhibition [6]: 16%

Substance: 548142 (eA*e[5mC]*kT*d[5mC]*dT*d[5mC]*d[5mC]*dA*dT*dG*d[5mC]*dT*dT*kT*kG*e[5mC]; antisense) [compound 548142]
- % inhibition [9]: 44%

Substance: 547878 (antisense e[5mC]*eA*kA*d[5mC]*dA*d[5mC]*dT*dG*d[5mC]*dT*dA*dA*d[5mC]*k[5mC]*kT*eT) [compound 547878]
- % inhibition [2]: 62%

Substance: 548372 (eG*eA*kT*dA*d[5mC]*d[5mC]*dT*dT*dT*d[5mC]*d[5mC]*dA*d[5mC]*kT*k[5mC]*e[5mC]; antisense) [compound 548372]
- % inhibition [4]: 61%

Substance: 548369 (eG*eT*kT*dG*dG*dG*dA*dT*dG*d[5mC]*dG*dA*d[5mC]*kT*k[5mC]*eT; antisense) [compound 548369]
- % inhibition [4]: 50%

Substance: 548412 (antisense eT*eA*kA*d[5mC]*dA*dG*dT*dA*dT*d[5mC]*dA*d[5mC]*dT*kG*kT*eA) [compound 548412]
- % inhibition (Table 30, human PKK mRNA, HepaRG cells, 1,000 nM antisense oligonucleotide): 17%

Substance: 548571 (eA*e[5mC]*kT*d[5mC]*dT*dG*dA*dG*dG*d[5mC]*d[5mC]*dT*dT*kA*kG*eG; antisense) [compound 548571]
- % inhibition [10]: 59%

Substance: 547937 (eT*eG*kT*dG*dA*d[5mC]*dT*d[5mC]*dG*dA*dT*dT*dT*kT*k[5mC]*e[5mC]; antisense) [compound 547937]
- % inhibition [11]: 56%

Substance: 548591 (eG*eT*kA*dA*dG*d[5mC]*d[5mC]*dT*dT*d[5mC]*dA*d[5mC]*dA*kG*kG*eG; antisense) [compound 548591]
- % inhibition [10]: 3%

Substance: 548293 (eG*eT*k[5mC]*dA*d[5mC]*d[5mC]*dA*dG*dA*dA*d[5mC]*d[5mC]*dA*k[5mC]*kA*eT; antisense) [compound 548293]
- % inhibition [5]: 44%

Substance: 548154 (eG*eT*kG*d[5mC]*dT*dG*dA*dA*dA*dG*d[5mC]*dG*dG*kG*k[5mC]*eT; antisense) [compound 548154]
- % inhibition [3]: 7%

Substance: 548192 (e[5mC]*e[5mC]*kT*dG*dT*d[5mC]*dA*dA*d[5mC]*dA*dT*dA*dT*kT*k[5mC]*e[5mC]; antisense) [compound 548192]
- % inhibition [3]: 65%

Substance: 547900 (eT*eG*kT*dA*d[5mC]*dT*dT*dT*dA*dA*dT*dA*dG*kG*k[5mC]*eA; antisense) [compound 547900]
- % inhibition [1]: 93%
- % inhibition [2]: 68%

Substance: 547815 (eA*eA*k[5mC]*dT*dT*dG*d[5mC]*dT*dG*dG*dA*dA*dG*kA*kA*eA; antisense) [compound 547815]
- % inhibition [7]: 3%

Substance: 548199 (eG*e[5mC]*kA*d[5mC]*dT*dG*d[5mC]*dA*dG*dG*d[5mC]*dA*dA*kT*kA*eT; antisense) [compound 548199]
- % inhibition [3]: 24%

Substance: 548563 (antisense eA*eA*kA*d[5mC]*d[5mC]*dA*dT*dG*dA*dA*dT*dT*dA*kG*kG*eT) [compound 548563]
- % inhibition [10]: 20%

Substance: 548681 (antisense eG*eA*kT*dA*dT*d[5mC]*dA*dT*d[5mC]*dA*dT*d[5mC]*d[5mC]*k[5mC]*kA*eA) [compound 548681]
- % inhibition [12]: 22%

Substance: 547957 (eG*eG*kT*dT*dA*dA*dA*dA*dG*dG*d[5mC]*dT*dA*kT*kA*eT; antisense) [compound 547957]
- % inhibition [11]: 6%

Substance: 548198 (eA*e[5mC]*kT*dG*d[5mC]*dA*dG*dG*d[5mC]*dA*dA*dT*dA*kT*kT*eT; antisense) [compound 548198]
- % inhibition [3]: 49%

Substance: 547827 (eG*eT*kT*d[5mC]*dG*dA*dT*dG*dT*dA*d[5mC]*dT*dT*kT*kT*eG; antisense) [compound 547827]
- % inhibition [7]: 47%

Substance: 548171 (e[5mC]*eA*kG*dT*dT*dG*d[5mC]*dG*dA*d[5mC]*d[5mC]*dT*d[5mC]*kG*k[5mC]*eA; antisense) [compound 548171]
- % inhibition [3]: 47%

Substance: 548006 (e[5mC]*eA*kA*dA*dG*dA*dG*dT*dA*dA*d[5mC]*d[5mC]*dA*kG*kA*eG; antisense) [compound 548006]
- % inhibition [8]: 54%

Substance: 547975 (antisense e[5mC]*eA*kA*dA*dG*dT*d[5mC]*dA*dA*d[5mC]*dT*d[5mC]*d[5mC]*k[5mC]*kG*eG) [compound 547975]
- % inhibition [11]: 44%

Substance: 548114 (antisense eT*eG*kG*dT*dG*dA*d[5mC]*dT*dG*d[5mC]*dA*dT*d[5mC]*kT*kG*eA) [compound 548114]
- % inhibition [9]: 70%

Substance: 548117 (antisense e[5mC]*eT*k[5mC]*dA*dT*dG*d[5mC]*dT*dG*dG*dT*dG*dA*k[5mC]*kT*eG) [compound 548117]
- % inhibition [9]: 73%

Substance: 547840 (antisense eT*eT*kG*d[5mC]*dT*dT*d[5mC]*dA*dA*dG*dG*dA*dA*kT*kG*eT) [compound 547840]
- % inhibition [7]: 36%

Substance: 548632 (antisense eG*eG*kA*dG*dA*dT*dA*dT*d[5mC]*dA*dG*dG*dT*kG*k[5mC]*eA) [compound 548632]
- % inhibition [12]: 45%

Substance: 548574 (eG*eG*kT*d[5mC]*dT*dA*dA*d[5mC]*dT*d[5mC]*dT*dA*dA*kG*kG*eG; antisense) [compound 548574]
- % inhibition [10]: 0%

Substance: 548546 (antisense eG*e[5mC]*k[5mC]*d[5mC]*dA*dA*dG*d[5mC]*d[5mC]*dT*dA*d[5mC]*dA*kT*kG*e[5mC]) [compound 548546]
- % inhibition [10]: 35%

Substance: 547968 (antisense eT*eT*kA*dG*dA*dA*dT*dG*dG*d[5mC]*dA*dG*dG*kG*kT*eT) [compound 547968]
- % inhibition [11]: 37%

Substance: 547905 (eT*eA*k[5mC]*dT*d[5mC]*dA*dG*d[5mC]*dA*d[5mC]*d[5mC]*dT*dT*kT*kA*eT; antisense) [compound 547905]
- % inhibition [1]: 20%
- % inhibition [2]: 59%

Substance: 548519 (antisense e[5mC]*e[5mC]*kT*d[5mC]*d[5mC]*d[5mC]*d[5mC]*dT*dT*dG*dT*dG*dT*kG*kT*e[5mC]) [compound 548519]
- % inhibition [6]: 31%
